Measurements reported in PubChem BioAssay (NCI).
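Protocol summary: plate cells (96-well), add compound at 5 concentrations, incubate 48 h, interpolate endpoints linearly. Definition used: TGI = concentration required for complete inhibition of growth.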

Columns and labels:
Test in all cases: NCI anticancer screen, dose series, 48 h
HCT-116 colon = system: HCT-116 colon
786-0 renal = system: 786-0 renal
HT29 colon = system: HT29 colon
OVCAR-4 ovarian = system: OVCAR-4 ovarian
SK-MEL-28 melanoma = system: SK-MEL-28 melanoma
SR leukemia = system: SR leukemia
SN12C renal = system: SN12C renal
SK-MEL-2 melanoma = system: SK-MEL-2 melanoma
SNB-75 CNS = system: SNB-75 CNS
TK-10 renal = system: TK-10 renal
SK-OV-3 ovarian = system: SK-OV-3 ovarian
IGROV1 ovarian = system: IGROV1 ovarian
MOLT-4 leukemia = system: MOLT-4 leukemia
EKVX NSCLC = system: EKVX NSCLC
MDA-MB-231 breast = system: MDA-MB-231 breast
NCI/ADR-RES ovarian = system: NCI/ADR-RES ovarian
MCF7 breast = system: MCF7 breast
MDA-MB-435 = system: MDA-MB-435
T-47D breast = system: T-47D breast

Structure (SMILES)	TGI (HCT-116 colon)	TGI (786-0 renal)	TGI (HT29 colon)	TGI (OVCAR-4 ovarian)	TGI (SK-MEL-28 melanoma)	TGI (SR leukemia)	TGI (SN12C renal)	TGI (SK-MEL-2 melanoma)	TGI (SNB-75 CNS)	TGI (TK-10 renal)	TGI (SK-OV-3 ovarian)	TGI (IGROV1 ovarian)	TGI (MOLT-4 leukemia)	TGI (EKVX NSCLC)	TGI (MDA-MB-231 breast)	TGI (NCI/ADR-RES ovarian)	TGI (MCF7 breast)	TGI (MDA-MB-435)	TGI (T-47D breast)
O=C(Nc1nc2ccccc2n1Cc1ccc(Cl)cc1)NC12CC3CC(CC(C3)C1)C2	64 µM	58.4 µM	> 100 µM	28.9 µM	68.3 µM	> 100 µM	> 100 µM	87.7 µM	22.9 µM	> 100 µM	39.2 µM	> 100 µM	> 100 µM	> 100 µM	–	–	–	–	–
CN1C(=O)c2c(c3c4ccccc4n(C4OC(CO)C(O)C(O)C4O)c3c3[nH]c4ccccc4c23)C1=O (stereo unspecified)	2.88 µM	7.31 µM	9.52 µM	6.36 µM	8.43 µM	1.2 µM	9.71 µM	4.72 µM	15.9 µM	13.7 µM	10.9 µM	4.1 µM	3.57 µM	9.09 µM	5.33 µM	49.9 µM	18.7 µM	6.95 µM	–
Cc1nc2ccccc2c(=O)n1NC(=S)Nc1cccc(Cl)c1	> 100 µM	> 100 µM	> 100 µM	> 100 µM	> 100 µM	> 100 µM	> 100 µM	> 100 µM	> 100 µM	> 100 µM	> 100 µM	> 100 µM	> 100 µM	–	–	–	–	–	–
c1ccc(N=c2sc3ccccc3sc2=Nc2ccccc2)cc1	3.18 µM	3.14 µM	3.86 µM	3.68 µM	3.4 µM	> 100 µM	3.15 µM	3.45 µM	11.5 µM	12.9 µM	11.8 µM	3.08 µM	> 100 µM	7.26 µM	3.67 µM	7.03 µM	–	3.99 µM	3.56 µM
COc1ccc(C2CC(=O)CC(c3ccc(OC)cc3)C23C(=O)NC(=S)NC3=O)cc1 (stereo unspecified)	> 100 µM	> 100 µM	> 100 µM	> 100 µM	> 100 µM	> 100 µM	> 100 µM	> 100 µM	> 100 µM	> 100 µM	–	> 100 µM	> 100 µM	> 100 µM	–	> 100 µM	> 100 µM	> 100 µM	> 100 µM
NC1CC(=O)c2csc(Cl)c21 (stereo unspecified)	14.1 µM	2.96 µM	29.2 µM	68.8 µM	46.3 µM	–	14.2 µM	30.7 µM	31.8 µM	24.1 µM	31.1 µM	42.2 µM	3.87 µM	35.9 µM	22.5 µM	> 86.7 µM	> 100 µM	27.3 µM	> 23.6 µM
COc1ccc(/C=C2\SC(c3ccc(OC)cc3)N(NC(=O)Cc3ccccc3)C2=O)cc1 (stereo unspecified)	> 100 µM	> 100 µM	> 100 µM	> 100 µM	> 100 µM	> 100 µM	> 100 µM	> 100 µM	> 100 µM	> 100 µM	> 100 µM	> 100 µM	> 100 µM	–	–	–	–	–	–
